# Data: patent publication US9725462B2, “Pyridopyrimidine derivatives as protein kinase inhibitors” (Merck Patent GmbH, priority 2012, dated 2017)
# pIC50: −log10 of the molar value.
# Target: T1, SYK (Homo sapiens, UniProt P43405)
# T1 construct: 2.5 nM SYK, 400 nM Biotin-Aha-Aha-KEDPDYEWPSAKK
# Experiment: SYK Flash Plate Assay (enzyme assay)
# Assay type: biochemical
# Details: Syk inhibition
# Excerpt: The following abbreviations refer respectively to the definitions below: • aq (aqueous), h (hour), g (gram), L (liter), mg (milligram), MHz (Megahertz), min. (minute), mm (millimeter), mmol (millimole), mM (millimolar), m.p. (melting point), eq (equivalent), mL (milliliter), L (microliter), ACN (acetonitrile), AcOH (acetic acid), CDCl3 (deuterated chloroform), CD3OD (deuterated methanol), CH3CN (acetonitrile), c-hex (cyclohexane), DCC (dicyclohexyl carbodiimide), DCM (dichloromethane), DIC (diisopropyl carbodiimide), DIEA (diisopropylethyl-amine), DMF (dimethylformamide), DMSO (dimethylsulfoxide), DMSO-d6 (deuterated dimethylsulfoxide), EDC (1-(3-dimethyl-amino-propyl)-3-ethylcarbodiimide), ESI (Electro-spray ionization), EtOAc (ethyl acetate), Et2O (diethyl ether), EtOH (ethanol), HATU (dimethylamino-([1,2,3]triazolo[4,5-b]pyridin-3-yloxy)-methylene]-dimethyl-ammonium hexafluorophosphate), HPLC (High Performance Liquid Chromatography), i-PrOH (2-propanol), K2CO3 (potassium carbonate), LC (Liquid Chromatography), MeOH (methanol), MgSO4 (magnesium sulfate), MS (mass spectrometry), MTBE (Methyl tert-butyl ether), NaHCO3 (sodium bicarbonate), NaBH4 (sodium borohydride), NMM (N-methyl morpholine), NMR (Nuclear Magnetic Resonance), PyBOP (benzotriazole-1-yl-oxy-tris-pyrrolidino-phosphonium hexafluorophosphate), RT (room temperature), Rt (retention time), SPE (solid phase extraction), TBTU (2-(1-H-benzotriazole-1-yl)-1,1,3,3-tetramethyluromium tetrafluoro borate), TEA (triethylamine), TFA (trifluoroacetic acid), THF (tetrahydrofuran), TLC (Thin Layer Chromatography), UV (Ultraviolet). Description of the In Vitro Assays SYK Flash Plate Assay
# The kinase assay is performed either as 384-well Flashplate assay (for e.g. Topcount measurement) or as 384-well Image-Flashplate assay (for LEADseeker measurement).
# 2.5 nM SYK, 400 nM Biotin-Aha-Aha-KEDPDYEWPSAKK
# and 10 μM ATP (spiked with 0.3 μCi 33P-ATP/well) are incubated in a total volume of 50 μl (60 mM Hepes, 10 mM MgCl2, 1.2 mM Dithiothreitol, 0.02% Brij35, 0.1% BSA, pH 7.5) with or without test compound for 1 hours at 30° C. The reaction is stopped with 25 μl 200 mM EDTA. After 30 Min at 30° C. the liquid is removed and each well washed thrice with 100 μl 0.9% sodium chloride solution. Non-specific reaction is determined in presence of 0.1 μM Staurosporine. Radioactivity is measured with Topcount (when using Flashplates) or with LEADseeker (when using Image-Flashplates) respectively. Results (e.g. IC50-values) are calculated with program tools provided by the IT-department (e.g. Symyx Assay Explorer, Genedata Screener). In Vivo Assays CIA
row,Compound,pIC50
1,"CC(C)C[C@@H](Nc1ncc2cncc(-c3c[nH]c4cc(C(F)(F)F)ccc34)c2n1)C(N)=O [Compound A62, (2R)-4-Methyl-2-[[8-[6-(trifluoromethyl)-1H-indol-3-yl]pyrido[4,3-d]-pyrimidin-2-yl]amino]pentanamide]",> 7.00
2,N[C@H]1CCCC[C@H]1Nc1ncc2cncc(-c3cc4cccc(F)c4[nH]3)c2n1 [Compound A81],6.00 to 7.00
3,"Cc1ncc(-c2c[nH]c3cc(C(F)(F)F)ccc23)c2nc(N[C@H]3CCCC[C@H]3N)ncc12 (single isomer, unassigned) [Compound A89]",> 7.00
4,N[C@H]1CCCC[C@H]1Nc1ncc2cncc(-c3ccc4[nH]cnc4c3)c2n1 [Compound A36],4.30 to 6.00
5,"CN1CN(c2ncc3c(N)ncc(-c4cnn(C)c4)c3n2)[C@@H]2CCCC[C@@H]21 (single isomer, unassigned) [Compound A11, 2-((cis)-3-Methyl-octahydro-benzoimidazol-1-yl)-8-(1-methyl-1H-pyrazol-4-yl)-pyrido[4,3-d]pyrimidin-5-ylamine]",4.30 to 6.00
6,"NC1CCCCC1Nc1ncc2cncc(-c3c[nH]c4c(F)cccc34)c2n1 (stereo not drawn) [Compound A63, cis-N2-[8-(7-Fluoro-1H-indol-3-yl)pyrido[4,3-d]pyrimidin-2-yl]cyclohexane-1,2-diamine]",> 7.00
7,"CC(C)(C)c1ccc(-c2cnc(N)c3cnc(N[C@H]4CCCC[C@H]4N)nc23)cc1 (relative stereo) [Compound A7, N2-(cis-2-Amino-cyclohexyl)-8-(4-tert-butyl-phenyl)-pyrido[4,3-d]pyrimidine-2,5-diamine]",4.30 to 6.00
8,"FC1(CNc2ncc3cncc(-c4c[nH]c5cc(C(F)(F)F)ccc45)c3n2)CCCNC1 (single isomer, unassigned) [Compound A79, (3-fluoro-piperidin-3-ylmethyl)-[8-(6-trifluoromethyl-1H-indol-3-yl)-pyrido[4,3-d]pyrimidin-2-yl]-amine]",4.30 to 6.00
9,"N#Cc1ccc2c(-c3cncc4cnc(N[C@@H]5CCOC[C@@H]5N)nc34)c[nH]c2c1 [Compound A69, 3[2-((3R,4R)-3-Amino-tetrahydro-pyran-4-ylamino)-pyrido[4,3-d]pyrimidin-8-yl]-1H-indole-6-carbonitrile]",6.00 to 7.00
10,"Cn1cc(-c2cnc(N)c3cnc(N[C@@H]4CCCC[C@@H]4N)nc23)cn1 (single isomer, unassigned) [Compound A1, N2-((cis)-2-Amino-cyclohexyl)-8-(1-methyl-1H-pyrazol-4-yl)-pyrido[4,3-d]-pyrimidine-2,5-diamine]",> 7.00
11,"Cc1cccc(-c2cnc(N)c3cnc(N[C@@H]4CCCC[C@@H]4N)nc23)c1 (single isomer, unassigned) [Compound A22, N2-((cis)-2-Amino-cyclohexyl)-8-m-tolyl-pyrido[4,3-d]pyrimidine-2,5-diamine]",> 7.00
12,"N[C@@H]1CCCC[C@@H]1Nc1ncc2cncc(-c3cc4n(n3)CCOC4)c2n1 (stereo in doubt) [Compound A43, (1S,2R)-N-[8-(6,7-Dihydro-4H-pyrazolo[5,1-c][1,4]oxazin-2-yl)-pyrido[4,3-d]pyrimidin-2-yl]-cyclohexane-1,2-diamine]",4.30 to 6.00
13,"N[C@H]1COCC[C@H]1Nc1ncc2cncc(-c3c[nH]c4ccccc34)c2n1 [Compound A68, (3R,4R)-N4-[8-(1H-Indol-3-yl)-pyrido[4,3-d]pyrimidin-2-yl]-tetrahydro-pyran-3,4-diamine]",> 7.00
14,"N#Cc1ccc2c(-c3cnc(C(F)F)c4cnc(N[C@@H]5CCCC[C@@H]5N)nc34)c[nH]c2c1 [Compound A87, 3-[2-((1R,2S)-2-amino-cyclohexylamino)-5-difluoromethyl-pyrido[4,3-d]-pyrimidin-8-yl]-1H-indole-6-carbonitrile]",> 7.00
15,"CC(C)C[C@@H](Nc1ncc2cncc(-c3c[nH]c4cc(C#N)ccc34)c2n1)C(N)=O [Compound A65, (R)-2-[8-(6-Cyano-1H-indol-3-yl)-pyrido[4,3-d]pyrimidin-2-yl-amino]-4-methyl-pentanoic acid amide]",> 7.00
16,"NC(=O)c1ccc2c(-c3cncc4cnc(N[C@@H]5CCCC[C@@H]5N)nc34)c[nH]c2c1 [Compound A77, 3-[2-((1R,2S)-2-amino-cyclohexylamino)-pyrido[4,3-d]pyrimidin-8-yl]-1H-indole-6-carboxylic acid amide]",> 7.00

row,Compound,pIC50
1,"COc1cccc2cc(-c3cnc(N)c4cnc(N[C@@H]5CCCC[C@@H]5N)nc34)[nH]c12 (relative stereo) [Compound A18, N2-(cis-2-Amino-cyclohexyl)-8-(7-methoxy-1H-indol-2-yl)-pyrido[4,3-d]pyrimidine-2,5-diamine]",> 7.00
2,"Cc1cccc(-c2cncc3cnc(N[C@H](CC(C)C)C(N)=O)nc23)c1 [Compound A32, (R)-4-Methyl-2-(8-m-tolyl-pyrido[4,3-d]pyrimidin-2-ylamino)-pentanoic acid amide]",4.30 to 6.00
3,CC1(C)CCOc2cc(-c3cncc4cnc(N[C@@H]5CCCC[C@@H]5N)nc34)ccc21 [Compound A29],4.30 to 6.00
4,"N[C@@H]1CCCC[C@@H]1Nc1ncc2cncc(-c3cc4ccc(F)cc4[nH]3)c2n1 (stereo in doubt) [Compound A42, (1S,2R)-N-[8-(6-Fluoro-1H-indol-2-yl)-pyrido[4,3-d]pyrimidin-2-yl]-cyclohexane-1,2-diamine]",4.30 to 6.00
5,"Cc1nn(C)cc1-c1cncc2cnc(N[C@@H]3CCCC[C@@H]3N)nc12 (relative stereo) [Compound A25, cis-N-[8-(1,3-Dimethyl-1H-pyrazol-4-yl)-pyrido[4,3-d]pyrimidin-2-yl]-cyclohexane-1,2-diamine]",4.30 to 6.00
6,"Nc1ncc(-c2ccc(OC(F)(F)F)cc2)c2nc(N[C@@H]3CCCC[C@@H]3N)ncc12 (single isomer, unassigned) [Compound A14, N2-((cis)-2-Amino-cyclohexyl)-8-(4-trifluoromethoxy-phenyl)-pyrido[4,3-d]pyrimidine-2,5-diamine]",6.00 to 7.00
7,"COc1cccc(C#Cc2cncc3cnc(N[C@H]4CCCC[C@H]4N)nc23)c1 (stereo in doubt) [Compound A35, (1S,2R)-N-[8-(3-Methoxy-phenylethynyl)-pyrido[4,3-d]pyrimidin-2-yl]-cyclohexane-1,2-diamine]",6.00 to 7.00
8,"Cc1cccc2[nH]c(-c3cncc4cnc(N[C@H]5CCCC[C@H]5N)nc34)cc12 (stereo in doubt) [Compound A66, (1S,2R)-N-[8-(4-Methyl-1H-indol-2-yl)-pyrido[4,3-d]pyrimidin-2-yl]-cyclohexane-1,2-diamine]",4.30 to 6.00
9,"N#Cc1ccc2c(-c3cncc4cnc(NC5CCCCC5)nc34)c[nH]c2c1 [Compound A80, 3-(2-cyclohexylamino-pyrido[4,3-d]pyrimidin-8-yl)-1H-indole-6-carbonitrile]",4.30 to 6.00
10,"CC(C)n1cc(-c2cncc3cnc(N[C@@H]4CCCC[C@@H]4N)nc23)cn1 [Compound A26, (1S,2R)-[8-(1-Isopropyl-1H-pyrazol-4-yl)-pyrido[4,3-d]pyrimidin-2-yl]-cyclohexane-1,2-diamine]",4.30 to 6.00
11,N[C@H]1CCCC[C@H]1Nc1ncc2cncc(-c3c[nH]c4cnccc34)c2n1 [Compound A76],> 7.00
12,"N[C@@H]1CCCC[C@@H]1Nc1ncc2cncc(-c3c[nH]c4ccccc34)c2n1 (stereo in doubt) [Compound A27, (1S,2R)-N-[8-(1H-Indol-3-yl)-pyrido[4,3-d]pyrimidin-2-yl]-cyclohexane-1,2-diamine]",> 7.00
13,"COC[C@H](N)CNc1ncc2c(N)ncc(-c3cnn(C)c3)c2n1 [Compound A20, N2-((R)-2-Amino-3-methoxy-propyl)-8-(1-methyl-1H-pyrazol-4-yl)-pyrido[4,3-d]pyrimidine-2,5-diamine]",6.00 to 7.00
14,N[C@H]1CCCC[C@H]1Nc1ncc2c(C(F)F)ncc(-c3c[nH]c4cc(C(F)(F)F)ccc34)c2n1 [Compound A82],> 7.00
15,"N#Cc1ccc2[nH]cc(-c3cncc4cnc(N[C@@H]5CCCC[C@@H]5N)nc34)c2c1 [Compound A44, 3-[2-((1 R,2S)-2-Amino-cyclohexylamino)-pyrido[4,3-d]pyrimidin-8-yl]-1H-indole-5-carbonitrile]",6.00 to 7.00
